Source: paper PMC7174758, “Synthesis and Biological Evaluation of HDAC Inhibitors With a Novel Zinc Binding Group” (Frontiers in Chemistry, 2020)

Legend:
acetyl-α-tubulin = assay: Western blot, acetylation of α-tubulin in Hela cells; type: cell-based, human; conditions: 20 and 40 μM, 48 h
Experimental: (§1) Afterwards, the Hela cells were collected using centrifugation, and were then lysed by the lysate, which were carried out further centrifugation at 12,000 rpm for 30 min. The protein of supernatant obtained by centrifugation was quantified using the BCA kit (Beijing Solarbio Science & Technology Co., Ltd.), and the protein extracts were mixed with the SDS-PAGE protein loading buffer (Beijing Solarbio Science & Technology Co., Ltd.), which were subject to 100°C water bath for 10 min to sufficiently denaturate. The gel was gelatinized using the SDS Gel Kit (Beijing Solarbio Science & Technology Co., Ltd.) and protein extracts were separated by protein SDS-polyacrylamide gel electrophoresis and then transferred to Immobilon-NC Membrane (Beijing Solarbio Science & Technology Co., Ltd.). After the blocking with 5% non-fat dried milk in TBS for 90 min at room temperature, the membranes were incubated overnight with specific primary antibodies (AFFINITY BIOSCIENCE) at 4°C, which were further incubated with secondary antibodies for 2 h after washing three times with TBST. The chemiluminescence analysis system was applied to label the target protein with a specific primary antibody and the target protein was detected using a specific antibody.

MCF-7 = assay: MTT anti-proliferative assay, MCF-7; conditions: Homo sapiens, MCF7, 48 h, read-out: IC50 MCF-7
Experimental: (§3) The antitumor bioactivities of the tittle compounds in vitro were firstly evaluated against four different human tumor cell lines [breast lung cancer (A549), cervical cancer (Hela), liver cancer (HepG2), breast cancer (MCF-7)] via MTT assay, and a normal cell line [human lung fibroblast (WI-38)] was applied to assess the safety of the synthesized compounds. […] In this study, the tested compounds were diluted to the required concentration with culture medium, and growth inhibitory effects against the cell lines of the tittle compounds were determined by MTT colorimetric assay. […] The microplate reader was adopted to record the absorbance at 490 nm for each well of the plates.

acetyl-histone H3 = assay: Western blot, acetylation of histone H3 in Hela cells; type: cell-based, human; conditions: 20 and 40 μM, 48 h
Experimental: as §1

HDAC6 = target: T1, HDAC6 (Homo sapiens, UniProt Q9UBN7); assay: Fluor de Lys HDAC6 assay kit; type: biochemical
T1 construct: purchased Enzo Life Sciences BML-AK516
T1 sequence (Q9UBN7 1-1215): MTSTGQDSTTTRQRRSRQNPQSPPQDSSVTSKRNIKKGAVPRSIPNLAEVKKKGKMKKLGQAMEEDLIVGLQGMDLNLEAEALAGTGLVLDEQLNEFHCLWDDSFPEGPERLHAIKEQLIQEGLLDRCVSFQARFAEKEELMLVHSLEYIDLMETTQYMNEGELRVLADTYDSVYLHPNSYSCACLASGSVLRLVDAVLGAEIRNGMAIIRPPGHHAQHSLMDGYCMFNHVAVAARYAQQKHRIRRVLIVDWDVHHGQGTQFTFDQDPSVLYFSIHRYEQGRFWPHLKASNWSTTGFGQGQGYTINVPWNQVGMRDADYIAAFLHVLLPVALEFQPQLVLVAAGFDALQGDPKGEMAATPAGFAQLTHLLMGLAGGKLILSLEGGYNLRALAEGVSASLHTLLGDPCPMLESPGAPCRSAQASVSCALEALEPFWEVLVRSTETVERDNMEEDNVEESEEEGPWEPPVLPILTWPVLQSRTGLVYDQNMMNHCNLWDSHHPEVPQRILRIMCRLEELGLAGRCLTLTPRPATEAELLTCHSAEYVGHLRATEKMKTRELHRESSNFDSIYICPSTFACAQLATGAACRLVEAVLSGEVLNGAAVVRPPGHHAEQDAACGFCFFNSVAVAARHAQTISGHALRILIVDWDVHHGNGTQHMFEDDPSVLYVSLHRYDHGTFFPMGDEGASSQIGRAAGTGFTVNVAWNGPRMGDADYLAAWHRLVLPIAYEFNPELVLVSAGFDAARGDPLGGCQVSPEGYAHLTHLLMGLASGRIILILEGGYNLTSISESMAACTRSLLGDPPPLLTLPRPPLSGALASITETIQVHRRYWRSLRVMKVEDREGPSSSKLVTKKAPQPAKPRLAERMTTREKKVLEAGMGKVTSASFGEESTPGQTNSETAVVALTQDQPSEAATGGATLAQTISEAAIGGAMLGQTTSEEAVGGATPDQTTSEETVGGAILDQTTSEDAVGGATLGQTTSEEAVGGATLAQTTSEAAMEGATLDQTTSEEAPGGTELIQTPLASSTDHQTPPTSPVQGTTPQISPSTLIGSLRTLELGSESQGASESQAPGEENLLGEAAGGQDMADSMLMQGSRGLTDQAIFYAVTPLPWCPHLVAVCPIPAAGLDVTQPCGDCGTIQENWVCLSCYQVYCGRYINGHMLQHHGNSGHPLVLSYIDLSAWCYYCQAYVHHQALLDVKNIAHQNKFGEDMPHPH
Experimental: (§2) The generated fluorescence after the deacetylation of HDAC could be detected at the wavelengths of 485 nm (excitation) and 530 nm (emission) using the microplate reader (PerkinElmer, USA). The dose response of inhibition experiment was carried out in triplicate, and the IC50 data was calculated by GraphPad Prism 5.

A549 = assay: MTT anti-proliferative assay, A549; conditions: Homo sapiens, A549, 48 h, read-out: IC50 A549
Experimental: as §3

WI-38 = assay: MTT cytotoxicity assay, normal cell line WI-38; conditions: Homo sapiens, WI-38, 48 h, read-out: IC50 WI-38
Experimental: as §3

[1] = system: HDACs extracted from Hela cervical cancer cells; assay: Enzyme inhibition assay, Hela nuclear extract (HDAC Inhibitor Drug Screening Kit); conditions: read-out: Hela nuclear extract IC50; mean ± SD of three experiments
Hela = assay: MTT anti-proliferative assay, Hela; conditions: Homo sapiens, 48 h, read-out: IC50 Hela
Experimental: as §3

HepG2 = assay: MTT anti-proliferative assay, HepG2; conditions: Homo sapiens, HepG2, 48 h, read-out: IC50 HepG2
Experimental: as §3

HDAC1 = target: T2, HDAC1 (Homo sapiens, UniProt Q13547); assay: Fluor de Lys HDAC1 assay kit; type: biochemical; conditions: three independent experiments, mean ± SD
T2 construct: purchased Enzo Life Sciences BML-AK511
Experimental: as §2

T2 sequence (Q13547 whole entry): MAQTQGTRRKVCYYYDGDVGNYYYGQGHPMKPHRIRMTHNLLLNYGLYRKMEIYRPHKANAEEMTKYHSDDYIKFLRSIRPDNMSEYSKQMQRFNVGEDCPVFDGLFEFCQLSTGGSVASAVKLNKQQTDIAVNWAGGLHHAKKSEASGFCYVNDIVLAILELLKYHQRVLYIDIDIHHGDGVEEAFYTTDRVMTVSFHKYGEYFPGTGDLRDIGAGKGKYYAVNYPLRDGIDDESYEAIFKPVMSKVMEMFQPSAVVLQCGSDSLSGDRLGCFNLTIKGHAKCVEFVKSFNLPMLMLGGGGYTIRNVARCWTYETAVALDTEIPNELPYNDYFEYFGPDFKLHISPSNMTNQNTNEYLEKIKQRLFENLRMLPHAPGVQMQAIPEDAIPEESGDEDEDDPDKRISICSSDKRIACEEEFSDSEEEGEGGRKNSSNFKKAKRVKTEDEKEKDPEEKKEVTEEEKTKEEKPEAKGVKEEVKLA

## O=C(CCCCCNC(=O)c1ccc(-c2ccccc2)cc1)NCCO [b8, N-(6-((2-hydroxyethyl)amino)-6-oxohexyl)-[1, 1'-biphenyl]-4-carboxamide]
acetyl-α-tubulin
  acetylation level of α-Tubulin: increase
MCF-7
  IC50: 40.1 ± 7.05 µM
acetyl-histone H3
  acetylation level of histone H3: insensitive
HDAC6; HDAC6 vs HDAC1
  inhibitory activity on HDAC6 relative to HDAC1: more than ten folds
HDAC6; three independent experiments, mean ± SD
  IC50: 4.2 ± 1.27 µM
A549
  IC50: 26.5 ± 0.26 µM
other
  melting point: 147.6 to 148.5 °C
WI-38
  IC50: 95.9 ± 4.28 µM
[1]
  IC50: 22.5 ± 5.2 µM
Hela
  IC50: 13.7 ± 1.31 µM
HepG2
  IC50: 28.4 ± 0.65 µM
HDAC1
  IC50: 56.5 ± 2.7 µM
